The target of the test is T1, Tyrosine-protein kinase SYK [355-635] (Homo sapiens, UniProt P43405).
T1 construct: 355-635
As to the kind of experiment: SYK assay_HTRF.

Where “and” joins values, the source holds several entries; their conditions need not be identical. Equal entries are not always repeated.

Regarding `Cc1cc(NS(=O)(=O)c2ccc(Nc3nccc(Nc4cccc5[nH]ncc45)n3)cc2)no1` [GTC000189A], the IC50 (commonly the concentration that inhibits the measured activity by half) was 741 nM and 942 nM and 582 nM.
In turn, `O=S(=O)(O)c1cccc(Nc2nccc(Nc3cccc4[nH]ncc34)n2)c1` [GTC000190A] gave an IC50 of 1100 nM.
Regarding `O=S(=O)(Nc1ccccn1)c1ccc(Nc2nccc(Nc3cccc4[nH]ncc34)n2)cc1` [GTC000191A], the IC50 was 673 nM and 571 nM.
In turn, `O=C(COc1ccc(Nc2nccc(Nc3cccc4[nH]ncc34)n2)cc1)NCCCO` [GTC000192A] displayed an IC50 of 611 nM.
In the case of `O=S(=O)(Cc1cccc(Nc2nccc(Nc3cccc4[nH]ncc34)n2)c1)NCCCO` [GTC000193A] it was 575 nM; in that of `CC(C)(C)OC(=O)COc1ccc(Nc2nccc(Nc3cccc4[nH]ncc34)n2)cc1` [GTC000194A], 1180 nM and 1960 nM and 1640 nM.
Consider `CNS(=O)(=O)Cc1ccc(Nc2nccc(Nc3cccc4[nH]ncc34)n2)cc1` [GTC000195A], for which the IC50 worked out at 426 nM.
In the case of `NC(=O)COc1ccc(Nc2nccc(Nc3cccc4[nH]ncc34)n2)cc1` [GTC000196A] it was 227 nM; in that of `CNC(=O)COc1ccc(Nc2nccc(Nc3cccc4[nH]ncc34)n2)cc1` [GTC000197A], 299 nM; in that of `O=C(O)COc1ccc(Nc2nccc(Nc3cccc4[nH]ncc34)n2)cc1` [GTC000198A], 326 nM.
As for `COC(=O)COc1ccc(Nc2nccc(Nc3cccc4[nH]ncc34)n2)cc1` [GTC000199A], the IC50 amounted to 490 nM.
As to `Cc1noc(NS(=O)(=O)Cc2ccc(Nc3nccc(Nc4cccc5[nH]ncc45)n3)cc2)c1C` [GTC000200A], the IC50 is 887 nM and 1810 nM.
`Cc1nc(NS(=O)(=O)Cc2ccc(Nc3nccc(Nc4cccc5[nH]ncc45)n3)cc2)sc1C` [GTC000201A] returned an IC50 of 1100 nM.
The compound `O=C1CCCN1CCCNS(=O)(=O)Cc1ccc(Nc2nccc(Nc3cccc4[nH]ncc34)n2)cc1` [GTC000202A] displayed an IC50 of 706 nM.
In the case of `O=S(=O)(Cc1ccc(Nc2nccc(Nc3cccc4[nH]ncc34)n2)cc1)NCCCO` [GTC000203A], 746 nM corresponded to half-maximal inhibition (IC50). This IC50 and that of the compound before are within 1.5-fold of each other.
In turn, `O=C(COc1ccc(Nc2nccc(Nc3cccc4[nH]ncc34)n2)cc1)NCCCN1CCCC1=O` [GTC000204A] gave an IC50 of 2070 nM. This IC50 lies about 2.8-fold higher than the previous one.
`Cc1noc(NC(=O)Cc2ccc(Nc3nccc(Nc4cccc5[nH]ncc45)n3)cc2)c1C` [GTC000205A]: it took 925 nM to reach half-maximal inhibition (IC50).
In the case of `Cc1cc(NC(=O)Cc2ccc(Nc3nccc(Nc4cccc5[nH]ncc45)n3)cc2)no1` [GTC000206A] it was 640 nM; in that of `CS(=O)(=O)Cc1ccc(Nc2nccc(Nc3cccc4[nH]ncc34)n2)cc1` [GTC000207A], 232 nM.
Then `COc1ccc(NC(=O)Cc2ccc(Nc3nccc(Nc4cccc5[nH]ncc45)n3)cc2)cc1` [GTC000208A], with 849 nM.
The compound `COc1cccc(NC(=O)Cc2ccc(Nc3nccc(Nc4cccc5[nH]ncc45)n3)cc2)c1` [GTC000209A] had an IC50 of 524 nM. This IC50 lies about 1.6-fold lower than the previous one.
`O=C(O)c1ccc(Nc2nccc(Nc3cccc4[nH]ncc34)n2)cc1` [GTC000210A]: the IC50 was 100 nM and 72.8 nM and 258 nM and 524 nM.
As to `O=C(Cc1ccc(Nc2nccc(Nc3cccc4[nH]ncc34)n2)cc1)Nc1ccc(C(F)(F)F)cc1` [GTC000211A], half-maximal inhibition (IC50) was put at 2930 nM.
For `O=C(Cc1ccc(Nc2nccc(Nc3cccc4[nH]ncc34)n2)cc1)Nc1cccc(C(F)(F)F)c1` [GTC000212A], half-maximal inhibition (IC50) was put at 1040 nM.
Compound `O=C(Cc1ccc(Nc2nccc(Nc3cccc4[nH]ncc34)n2)cc1)Nc1cccc(Cl)c1` [GTC000213A] registered an IC50 of 1390 nM.
In the case of `O=C(Cc1ccc(Nc2nccc(Nc3cccc4[nH]ncc34)n2)cc1)Nc1ccc(Cl)cc1` [GTC000214A] it was 1400 nM; in that of `Cc1nc(NC(=O)Cc2ccc(Nc3nccc(Nc4cccc5[nH]ncc45)n3)cc2)sc1C` [GTC000215A], 676 nM; in that of `O=C(Cc1ccc(Nc2nccc(Nc3cccc4[nH]ncc34)n2)cc1)Nc1ccncc1` [GTC000216A], 828 nM.
In turn, `CS(=O)(=O)Nc1ccc(Nc2nccc(Nc3cccc4[nH]ncc34)n2)cc1` [GTC000217A] came in with an IC50 of 414 nM.
With `CNC(=O)Cc1ccc(Nc2nccc(Nc3cccc4[nH]ncc34)n2)cc1` [GTC000218A], the IC50 amounted to 1260 nM.
In the case of `O=C(Cc1ccc(Nc2nccc(Nc3cccc4[nH]ncc34)n2)cc1)Nc1cccnc1` [GTC000219A] it was 543 nM; in that of `Cc1ccc(S(=O)(=O)Nc2ccc(Nc3nccc(Nc4cccc5[nH]ncc45)n3)cc2)cc1` [GTC000220A], 916 nM; in that of `c1cc(Nc2ccnc(Nc3ccc4[nH]ncc4c3)n2)c2cn[nH]c2c1` [GTC000221A], 164 nM and 78.2 nM and 235 nM.
In the case of `CCN(c1nc(Nc2ccc3c(c2)S(=O)(=O)NC3)ncc1Cl)c1cccc2[nH]ncc12` [GTC000222A], the IC50 is 12.7 nM and 15.6 nM and 9.33 nM.
The compound `O=S1(=O)NCc2ccc(Nc3nccc(N(CCO)c4cccc5[nH]ncc45)n3)cc21` [GTC000223A] displayed an IC50 of 3.45 nM.
Then `Cc1ncoc1-c1cccc(Nc2nccc(N(CCCO)c3cccc4[nH]ncc34)n2)c1` [GTC000224A], with 11.1 nM.
Turning to `Cn1ncc2cc(Nc3nccc(N(CCCO)c4cccc5[nH]ncc45)n3)ccc21` [GTC000225A], the 50% inhibitory concentration (IC50) is 20.6 nM and 18.5 nM.
`O=S1(=O)NCc2ccc(Nc3nccc(N(CCCO)c4cccc5[nH]ncc45)n3)cc21` [GTC000226B]: the IC50 is 0.412 nM and 0.746 nM and 2.23 nM and 3.35 nM and 0.925 nM and 2.21 nM and 3.52 nM and 3.44 nM.
Take `NCCCN(c1ccnc(Nc2ccc3c(c2)S(=O)(=O)NC3)n1)c1cccc2[nH]ncc12` [GTC000227A]: the IC50 was 0.857 nM and 0.75 nM and 3.63 nM.
In the case of `COCCCN(c1nc(Nc2ccc3c(c2)S(=O)(=O)NC3)ncc1F)c1cccc2[nH]ncc12` [GTC000228C] it was 2.45 nM and 1.1 nM and 2.07 nM and 1.38 nM and 3.35 nM and 1.47 nM and 2.08 nM and 7 nM and 4.35 nM and 2.02 nM and 5.36 nM and 2 nM and 3.66 nM and 2.13 nM and 2.86 nM.
Consider `O=C(O)CCCCN(c1ccnc(Nc2ccc3c(c2)S(=O)(=O)NC3)n1)c1cccc2[nH]ncc12` [GTC000229A], for which the IC50 was 1.41 nM and 1.19 nM and 2.47 nM.
Compound `O=S1(=O)NCc2ccc(Nc3ncc(F)c(N(CCCO)c4cccc5[nH]ncc45)n3)cc21` [GTC000230A] returned an IC50 of 1.46 nM.
`CC(=O)NCCCCN(c1ccnc(Nc2ccc3[nH]c(=O)[nH]c3c2)n1)c1cccc2[nH]ncc12` [GTC000231A] displayed a half-maximal inhibitory concentration (IC50) of 1.42 nM. The IC50 values of the last two compounds are within 1.5-fold of each other.
In the case of `OCCN(c1ccnc(Nc2ccc3nn[nH]c3c2)n1)c1cccc2[nH]ncc12` [GTC000232A] it was 2.05 nM; in that of `Cc1nn(CCCO)c2cc(Nc3ncc(F)c(N(CCCO)c4cccc5[nH]ncc45)n3)ccc12` [GTC000234A], 4.79 nM and 2.46 nM and 1.87 nM.
Regarding `O=S1(=O)CCc2ccc(Nc3ncc(F)c(N(CCCCO)c4cccc5[nH]ncc45)n3)cc21` [GTC000235A], the IC50 was 9.64 nM and 1.94 nM and 1.64 nM.
On to `COCCCN(c1ccnc(Nc2ccc3c(c2)S(=O)(=O)NC3)n1)c1cccc2[nH]ncc12` [GTC000236A], for which the IC50 is 2.69 nM and 1.48 nM and 4.88 nM and 4.34 nM.
For the compound `CCN(c1nc(Nc2ccc3[nH]c(=O)[nH]c3c2)ncc1F)c1cccc2[nH]ncc12` [GTC000237B], the IC50 is 1.87 nM and 6.87 nM and 3.76 nM and 3.14 nM and 8.63 nM and 2.75 nM.
Take `COCCCN(c1ccnc(Nc2ccc3c(c2)COC(=O)N3)n1)c1cccc2[nH]ncc12` [GTC000238A]: half-maximal inhibition (IC50) required 2.92 nM.
In the case of `CS(=O)(=O)NCCCN(c1ccnc(Nc2ccc3[nH]c(=O)[nH]c3c2)n1)c1cccc2[nH]ncc12` [GTC000239A], the IC50 was found to be 3.16 nM.
Consider `CCN(c1nc(Nc2cccc(S(N)(=O)=O)c2)ncc1F)c1cccc2[nH]ncc12` [GTC000240B], for which the IC50 is 3.21 nM and 19 nM and 19.8 nM and 17.2 nM.
`O=S1(=O)NCc2ccc(Nc3nccc(N(CCCCO)c4cccc5[nH]ncc45)n3)cc21` [GTC000241A] came in with an IC50 of 2.9 nM.
In the case of `CCN(c1nc(Nc2ccc3c(C)nn(CCCO)c3c2)ncc1F)c1cccc2[nH]ncc12` [GTC000242A] it was 3.61 nM and 9.62 nM and 1.58 nM and 2.77 nM and 3.88 nM.
